Measurements: ChEMBL document CHEMBL5038659, “Discovery of the First Examples of Threonine Tyrosine Kinase PROTAC Degraders” (J Med Chem, 2022)
Activity calls are given as the source filed them. The calls are words filed in the database; no cut-off is given here.

Legend:
COLO 205 [1] = test: Antiproliferative against human COLO 205 cells assessed as cell viability after 4 days by CCK-8 assay; assay type: functional, cell-based; conditions: COLO 205, 96 h
[2] = biological target: T1, Protein cereblon/Dual specificity protein kinase TTK (Homo sapiens, UniProt P33981+Q96SW2); test: Protac activity at CRBN/TTK in human COLO 205 cells assessed as degradation of TTK measured after 6 hrs by Western blotting analysis; assay type: cell-based
Target sequence in this assay (P33981 whole entry): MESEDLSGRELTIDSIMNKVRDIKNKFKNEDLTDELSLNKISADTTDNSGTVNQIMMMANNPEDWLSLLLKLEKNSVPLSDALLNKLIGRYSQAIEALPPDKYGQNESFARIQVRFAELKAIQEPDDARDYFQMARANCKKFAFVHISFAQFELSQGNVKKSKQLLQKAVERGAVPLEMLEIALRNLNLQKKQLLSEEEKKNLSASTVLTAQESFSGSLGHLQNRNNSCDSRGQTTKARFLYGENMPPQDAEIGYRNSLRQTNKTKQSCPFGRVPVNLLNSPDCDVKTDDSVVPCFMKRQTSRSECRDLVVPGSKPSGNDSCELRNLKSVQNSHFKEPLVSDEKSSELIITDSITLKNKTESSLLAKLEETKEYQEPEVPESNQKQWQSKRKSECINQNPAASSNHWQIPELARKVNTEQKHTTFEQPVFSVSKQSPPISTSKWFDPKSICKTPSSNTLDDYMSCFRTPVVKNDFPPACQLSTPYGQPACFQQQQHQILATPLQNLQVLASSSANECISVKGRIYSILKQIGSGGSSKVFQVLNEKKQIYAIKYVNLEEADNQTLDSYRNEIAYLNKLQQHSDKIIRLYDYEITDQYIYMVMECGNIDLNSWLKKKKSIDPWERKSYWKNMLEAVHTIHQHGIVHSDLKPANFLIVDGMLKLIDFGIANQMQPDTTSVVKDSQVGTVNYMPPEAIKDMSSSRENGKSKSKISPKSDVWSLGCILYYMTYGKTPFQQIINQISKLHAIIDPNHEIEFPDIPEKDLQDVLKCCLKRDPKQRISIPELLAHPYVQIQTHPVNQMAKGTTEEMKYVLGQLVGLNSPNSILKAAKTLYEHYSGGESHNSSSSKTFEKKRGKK
Target sequence in this assay (Q96SW2 whole entry): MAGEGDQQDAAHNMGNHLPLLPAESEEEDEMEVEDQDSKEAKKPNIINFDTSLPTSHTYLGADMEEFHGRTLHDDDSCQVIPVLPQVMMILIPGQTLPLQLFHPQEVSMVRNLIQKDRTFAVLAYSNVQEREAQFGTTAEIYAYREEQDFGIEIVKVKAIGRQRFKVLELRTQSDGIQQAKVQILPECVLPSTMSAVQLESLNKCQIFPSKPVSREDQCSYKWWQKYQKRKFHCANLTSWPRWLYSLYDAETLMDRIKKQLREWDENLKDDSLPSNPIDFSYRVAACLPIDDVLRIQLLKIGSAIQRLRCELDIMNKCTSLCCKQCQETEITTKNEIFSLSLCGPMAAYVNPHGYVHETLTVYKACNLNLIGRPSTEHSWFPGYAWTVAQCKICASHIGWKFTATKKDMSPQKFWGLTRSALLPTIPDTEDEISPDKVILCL

[3] = biological target: T1, Protein cereblon/Dual specificity protein kinase TTK; test: Protac activity at CRBN/TTK in human HCT-116 cells assessed as degradation of TTK measured after 6 hrs by Western blotting analysis; assay type: cell-based
Target sequence in this assay (P33981 whole entry): as the sequence (P33981 whole entry) above
Target sequence in this assay (Q96SW2 whole entry): as the sequence (Q96SW2 whole entry) above

[4] = biological target: T1, Protein cereblon/Dual specificity protein kinase TTK; test: Protac activity at CRBN/TTK in human COLO 205 cells assessed as TTK degradation by measuring maximum degradation after 6 hrs by Western blotting analysis relative to control; assay type: cell-based
Target sequence in this assay (P33981 whole entry, looked up): as the sequence (P33981 whole entry) above
Target sequence in this assay (Q96SW2 whole entry, looked up): as the sequence (Q96SW2 whole entry) above

[5] = biological target: T1, Protein cereblon/Dual specificity protein kinase TTK; test: Protac activity at CRBN/TTK in human HCT-116 cells assessed as TTK degradation by measuring maximum degradation after 6 hrs by Western blotting analysis relative to control; assay type: cell-based
Target sequence in this assay (P33981 whole entry, looked up): as the sequence (P33981 whole entry) above
Target sequence in this assay (Q96SW2 whole entry, looked up): as the sequence (Q96SW2 whole entry) above

[6] = biological target: von Hippel-Lindau disease tumor suppressor/Dual specificity protein kinase TTK (Homo sapiens, UniProt P33981+P40337); test: Protac activity at VHL/TTK in human HCT-116 cells assessed as degradation of TTK measured after 6 hrs by Western blotting analysis; assay type: cell-based
Chain of von Hippel-Lindau disease tumor suppressor/Dual specificity protein kinase TTK (P33981 whole entry): as the sequence (P33981 whole entry) above
Chain of von Hippel-Lindau disease tumor suppressor/Dual specificity protein kinase TTK (P40337 whole entry): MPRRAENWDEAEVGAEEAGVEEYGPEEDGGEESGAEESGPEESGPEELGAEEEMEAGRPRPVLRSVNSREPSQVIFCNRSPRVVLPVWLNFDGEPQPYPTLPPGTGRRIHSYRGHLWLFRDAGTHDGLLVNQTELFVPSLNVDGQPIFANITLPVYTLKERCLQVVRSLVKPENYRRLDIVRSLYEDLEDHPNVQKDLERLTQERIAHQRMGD

LoVo = test: Antiproliferative against human LoVo cells assessed as cell viability at 0.0001 to 100 uM at day 4 by CCK-8 assay; assay type: functional, cell-based; conditions: dose 0.0001-100 µM
[7] = Toxicity in CB17-SCID mouse xenografted with human […] cells assessed as effect on body weight at 10 to 20 mg/kg, ip daily for 16 days; assay type: organism-based, COLO 205; conditions: in vivo, 384 h, dose 10-20 mg/kg, time 16 day
COLO 205 [8] = test: Antitumor activity against human COLO205 cells xenografted in CB17-SCID mouse assessed as tumor growth inhibition at 20 mg/kg, ip daily for 16 days relative to control; assay type: functional; conditions: COLO 205, ip, 384 h, time 16 day, read-out: TGI
[9] = biological target: T1, Protein cereblon/Dual specificity protein kinase TTK; test: Protac activity at CRBN/TTK in human […] cells assessed as degradation of TTK measured at […] for 6 hrs by Western blotting analysis; assay type: cell-based; conditions: dose lower 5.0 µM
Target sequence in this assay (P33981 whole entry, looked up): as the sequence (P33981 whole entry) above
Target sequence in this assay (Q96SW2 whole entry, looked up): as the sequence (Q96SW2 whole entry) above

[10] = biological target: T1, Protein cereblon/Dual specificity protein kinase TTK; test: Protac activity at CRBN/TTK in human COLO 205 cells assessed as induction of TTK degradation at 5 nM after 6 to 8 hrs post washout by Western blot analysis; assay type: cell-based; conditions: time 6-8 hrs
Target sequence in this assay (P33981 whole entry, looked up): as the sequence (P33981 whole entry) above
Target sequence in this assay (Q96SW2 whole entry, looked up): as the sequence (Q96SW2 whole entry) above

[11] = biological target: T1, Protein cereblon/Dual specificity protein kinase TTK; test: In vivo protac activity at CRBN/TTK in human COLO-205 cells xenografted in CB17-SCID mouse at 10 to 20 mg/kg, ip daily for 16 days by western blotting analysis; assay type: organism-based; conditions: dose 10-20 mg/kg, time 16.0 day
Target sequence in this assay (P33981 whole entry, looked up): as the sequence (P33981 whole entry) above
Target sequence in this assay (Q96SW2 whole entry, looked up): as the sequence (Q96SW2 whole entry) above

[12] = biological target: T1, Protein cereblon/Dual specificity protein kinase TTK; test: Protac activity at CRBN/TTK in human LoVo cells assessed as degradation of TTK measured at […] for 6 hrs by Western blotting analysis; assay type: cell-based; conditions: dose lower 5.0 µM
Target sequence in this assay (P33981 whole entry, looked up): as the sequence (P33981 whole entry) above
Target sequence in this assay (Q96SW2 whole entry, looked up): as the sequence (Q96SW2 whole entry) above

HCT-29 = test: Antiproliferative against human […] cells assessed as cell viability at 0.0001 to 100 uM at day 4 by CCK-8 assay; assay type: functional, cell-based; conditions: dose 0.0001-100 µM
COLO 205 [13] = test: Antitumor activity against human COLO205 cells xenografted in CB17-SCID mouse assessed as tumor growth inhibition at 10 mg/kg, ip daily for 16 days relative to control; assay type: functional, organism-based; conditions: time 16.0 day
[14] = Half life in Sprague-Dawley rat at 10 mg/kg, ip by LC-MS/MS analysis; assay type: ADME, organism-based; conditions: in vivo
[15] = biological target: T1, Protein cereblon/Dual specificity protein kinase TTK; test: Protac activity at CRBN/TTK in human HCT-8 cells assessed as degradation of TTK measured at […] for 6 hrs by Western blotting analysis; assay type: cell-based; conditions: dose lower 5.0 µM
HCT-8 = test: Antiproliferative against human HCT-8 cells assessed as cell viability at 0.0001 to 100 uM at day 4 by CCK-8 assay; assay type: functional, cell-based; conditions: dose 0.0001-100 µM
[16] = AUC in Sprague-Dawley rat at 10 mg/kg, ip by LC-MS/MS analysis; assay type: ADME, organism-based; parameters: dose 10 mg/kg; conditions: in vivo
[17] = biological target: T1, Protein cereblon/Dual specificity protein kinase TTK; test: Protac activity at CRBN/TTK in human COLO 205 cells assessed as induction of TTK degradation in presence of MG132 incubated for 1 hr by Western blotting analysis relative to control; assay type: cell-based
[18] = biological target: T1, Protein cereblon/Dual specificity protein kinase TTK; test: Protac activity at CRBN/TTK in human COLO 205 cells assessed as induction of TTK degradation at 5 nM after 16 hrs post washout by Western blot analysis; assay type: cell-based
[19] = biological target: T1, Protein cereblon/Dual specificity protein kinase TTK; test: Protac activity at CRBN/TTK in human COLO 205 cells assessed as induction of TTK degradation in presence of N-[4-[2-[2-methoxy-4-(4-methylpiperazin-1-yl)anilino]-5-methyl-7-oxo-pyrido[2,3-d]pyrimidin-8-yl]cyclohexyl]propanamide after 6 hrs by Western blotting relative to control; assay type: cell-based

DC50 [2] [nM] | DC50 [3] [nM] | Emax [4] [%] | Emax [5] [%] | SMILES | also measured
5 | 20.3 | 76 | 50 | CCC(=O)N[C@H]1CC[C@@H](n2c(=O)cc(C)c3cnc(Nc4ccc(N5CCN(C(=O)CCCCCC#Cc6cccc7c6CN(C6CCC(=O)NC6=O)C7=O)CC5)cc4OC)nc32)CC1 (stereo partly drawn) | –
2.2 | 49.6 | 87 | 66 | CCC(=O)N[C@H]1CC[C@@H](n2c(=O)cc(C)c3cnc(Nc4ccc(N5CCN(C(=O)CCCCCCCCCC#Cc6cccc7c6CN(C6CCC(=O)NC6=O)C7=O)CC5)cc4OC)nc32)CC1 (stereo partly drawn) | –
1.5 | 35 | 86 | 61 | CCC(=O)N[C@H]1CC[C@@H](n2c(=O)cc(C)c3cnc(Nc4ccc(N5CCN(C(=O)CCCCCC#Cc6ccc7c(c6)CN(C6CCC(=O)NC6=O)C7=O)CC5)cc4OC)nc32)CC1 (stereo partly drawn) | –
5.6 | 30.2 | 85 | 83 | CCC(=O)N[C@H]1CC[C@@H](n2c(=O)cc(C)c3cnc(Nc4ccc(N5CCN(C(=O)CCCCCCCCCC#Cc6ccc7c(c6)CN(C6CCC(=O)NC6=O)C7=O)CC5)cc4OC)nc32)CC1 (stereo partly drawn) | –
3 | 663 | 85 | 50 | CCC(=O)N[C@H]1CC[C@@H](n2c(=O)cc(C)c3cnc(Nc4ccc(N5CCN(C(=O)CCCCCCCC#Cc6ccc7c(c6)CN(C6CCC(=O)NC6=O)C7=O)CC5)cc4OC)nc32)CC1 (stereo partly drawn) | –
46 | 496 | 73 | 37 | CCC(=O)N[C@H]1CC[C@@H](n2c(=O)cc(C)c3cnc(Nc4ccc(N5CCN(C(=O)CCCCCCCC#Cc6cccc7c6C(=O)N(C6CCC(=O)NC6=O)C7)CC5)cc4OC)nc32)CC1 (stereo partly drawn) | –
599 | > 1000 | 28 | 43 | CCC(=O)N[C@H]1CC[C@@H](n2c(=O)cc(C)c3cnc(Nc4ccc(N5CCN(C(=O)CCCC#Cc6cccc7c6CN(C6CCC(=O)NC6=O)C7=O)CC5)cc4OC)nc32)CC1 (stereo partly drawn) | –
21.7 | > 1000 | 88 | 13 | CCC(=O)N[C@H]1CC[C@@H](n2c(=O)cc(C)c3cnc(Nc4ccc(N5CCN(C(=O)CCCCCCCCCC#Cc6cccc7c6C(=O)N(C6CCC(=O)NC6=O)C7)CC5)cc4OC)nc32)CC1 (stereo partly drawn) | –

More lines, now with the values behind:

SMILES | DC50 [2] [nM] | DC50 [3] [nM] | Emax [4] [%] | Emax [5] [%] | also measured
CCC(=O)N[C@H]1CC[C@@H](n2c(=O)cc(C)c3cnc(Nc4ccc(N5CCN(C(=O)CCCC#Cc6ccc7c(c6)CN(C6CCC(=O)N(C)C6=O)C7=O)CC5)cc4OC)nc32)CC1 (stereo partly drawn) | – | – | – | – | IC50 (COLO 205 [1]): 1500 nM
CCC(=O)N[C@H]1CC[C@@H](n2c(=O)cc(C)c3cnc(Nc4ccc(N5CCN(CCCCCCOCCC(=O)N[C@H](C(=O)N6C[C@H](O)C[C@H]6C(=O)NCc6ccc(-c7scnc7C)cc6)C(C)(C)C)CC5)cc4OC)nc32)CC1 | – | – | – | – | DC50 [6]: > 1000 nM
CCC(=O)N[C@H]1CC[C@@H](n2c(=O)cc(C)c3cnc(Nc4ccc(N5CCN(CCCCCCCCOCCC(=O)N[C@H](C(=O)N6C[C@H](O)C[C@H]6C(=O)NCc6ccc(-c7scnc7C)cc6)C(C)(C)C)CC5)cc4OC)nc32)CC1 | – | – | – | – | DC50 [6]: > 1000 nM
CCC(=O)N[C@H]1CC[C@@H](n2c(=O)cc(C)c3cnc(Nc4ccc(N5CCN(C(=O)CCCC#Cc6cccc7c6C(=O)N(C6CCC(=O)NC6=O)C7)CC5)cc4OC)nc32)CC1 (stereo partly drawn) | 30.3 | > 1000 | 64 | 28 | –
CCC(=O)N[C@H]1CC[C@@H](n2c(=O)cc(C)c3cnc(Nc4ccc(N5CCN(C(=O)CCCC#Cc6ccc7c(c6)C(=O)N(C6CCC(=O)NC6=O)C7)CC5)cc4OC)nc32)CC1 (stereo partly drawn) | 3.3 | 25.4 | 77 | 57 | –
CCC(=O)N[C@H]1CC[C@@H](n2c(=O)cc(C)c3cnc(Nc4ccc(N5CCN(C(=O)CCCCCCCCCC#Cc6ccc7c(c6)C(=O)N(C6CCC(=O)NC6=O)C7)CC5)cc4OC)nc32)CC1 (stereo partly drawn) | 19.1 | 74.5 | 87 | 66 | –
CCC(=O)N[C@H]1CC[C@@H](n2c(=O)cc(C)c3cnc(Nc4ccc(N5CCN(CCCCOCCC(=O)N[C@H](C(=O)N6C[C@H](O)C[C@H]6C(=O)NCc6ccc(-c7scnc7C)cc6)C(C)(C)C)CC5)cc4OC)nc32)CC1 | – | – | – | – | DC50 [6]: > 1000 nM
CCC(=O)N[C@H]1CC[C@@H](n2c(=O)cc(C)c3cnc(Nc4ccc(N5CCN(CCOCCC(=O)N[C@H](C(=O)N6C[C@H](O)C[C@H]6C(=O)NCc6ccc(-c7scnc7C)cc6)C(C)(C)C)CC5)cc4OC)nc32)CC1 | – | – | – | – | DC50 [6]: > 1000 nM
CCC(=O)N[C@H]1CC[C@@H](n2c(=O)cc(C)c3cnc(Nc4ccc(N5CCN(C(=O)CCCCCC#Cc6cccc7c6C(=O)N(C6CCC(=O)NC6=O)C7)CC5)cc4OC)nc32)CC1 (stereo partly drawn) | 31.3 | > 1000 | 72 | 41 | –
CCC(=O)N[C@H]1CC[C@@H](n2c(=O)cc(C)c3cnc(Nc4ccc(N5CCN(C(=O)CCCCCCCC#Cc6ccc7c(c6)C(=O)N(C6CCC(=O)NC6=O)C7)CC5)cc4OC)nc32)CC1 (stereo partly drawn) | 7 | 161 | 84 | 43 | –
CCC(=O)N[C@H]1CC[C@@H](n2c(=O)cc(C)c3cnc(Nc4ccc(N5CCN(C(=O)CCCCCC#Cc6ccc7c(c6)C(=O)N(C6CCC(=O)N(C)C6=O)C7)CC5)cc4OC)nc32)CC1 (stereo partly drawn) | – | – | – | – | IC50 (COLO 205 [1]): 1500 nM
CCC(=O)N[C@H]1CC[C@@H](n2c(=O)cc(C)c3cnc(Nc4ccc(N5CCN(C(=O)CCCCCC#Cc6ccc7c(c6)C(=O)N(C6CCC(=O)NC6=O)C7)CC5)cc4OC)nc32)CC1 (stereo partly drawn) | 3.1 | 12.4 | 82 | 77 | Activity (LoVo): Dose-Dependent Effect; Activity [7]: Non-Toxic; inhibition in vivo at 20 mg/kg (COLO 205 [8]): 36.7%; Activity [9]: Dose-Dependent Effect; Activity [10]: Active; Activity [11]: Active; Activity [12]: Dose-Dependent Effect; Activity (HCT-29): Dose-Dependent Effect; IC50 (COLO 205 [1]): 200 nM; Activity (COLO 205 [13]): inactive; half-life [14]: 3.2 h; Activity [15]: Dose-Dependent Effect; Activity (HCT-8): Dose-Dependent Effect; AUC [16]: 2330 ng·h/mL; Activity [17]: inactive; Activity [18]: inactive; Activity [19]: inactive
CCC(=O)N[C@H]1CC[C@@H](n2c(=O)cc(C)c3cnc(Nc4ccc(N5CCN(C(=O)CCCCCCCC#Cc6cccc7c6CN(C6CCC(=O)NC6=O)C7=O)CC5)cc4OC)nc32)CC1 (stereo partly drawn) | 7 | 58.1 | 84 | 53 | –
